For assay [1], the system named is Intraocular Pressure. The assay can be described thus: Rhesus Monkey - Laser Model, IOP lowering after topical administration. Format: in vivo, Rhesus monkeys. To be noted: laser-induced ocular hypertension, peak effect, percentage change in the hypertensioned eye versus the same eye at the same hour the previous day.
Experimental: A. Rhesus Monkey - Laser Model
Ocular hypertension was produced in adult Rhesus monkeys (4) via an argon laser photocoagulation of trabecular meshwork in the eye. The treated eye (only one is lasered) was allowed to heal and the IOP stabilized after about six weeks. Tests were performed by topical administration of one drop of a 0.5% solution of-the test agent to the Ketamine anesthetized Rhesus monkey's eye. The IOP charge was recorded by an Alcon Applanation Phneumatonograph. The peak effect was recorded as a percentage change in the hypertensioned eye versus the IOP value of the same eye recorded at the same hour the previous day.
Assay [2] has as its system Intraocular Pressure. The assay can be described thus: Normal Rabbit Model, IOP lowering after topical administration. The conditions noted are these: Oryctolagus cuniculus, read-out: (B) 50uL 1% topical Normal Rabbit %IOP. Format: in vivo, New Zealand albino rabbits. On the procedure: To determine the IOP reduction efficacy of the anti-glaucoma drugs of the invention in normal albino rabbits the following was done.
New Zealand albino rabbits (12) were acclimatized in restraining boxes for thirty minutes. Alcaine/ saline (1:5) was applied to the rabbit eyes and baseline IOP in mm Hg pressure were measured using an Alcon Laboratory Applanation Phneumatonograph. Then thirty minutes later, the coded test substance versus a coded saline control was administered as a 50 ul drop to one eye, six animals in each group. The treatment effects were measured as a function of time. Mean IOP and mean change in IOP for each hourly reading was recorded.
The effect cited is a peak percentage effect versus the external control test group.

[3] abbreviates: 50uL 1% topical to one eye, peak percentage effect versus the external (saline) control group.

Where a name gives a salt, the structure may show the parent alone. Read-outs that look alike come from different tables or passages of the source.

As to `Clc1cccc(Cl)c1N=C1NCCN1` [2,6-Dichloro-N-2-imidazolidinylidene-benezamine, reference compound], the “(A) 50uL 0.5% topical Laser-Monkey %IOP” value in the assay on Intraocular Pressure [1] was -32.0%. In addition, the change in vivo at 1 % in the assay with Intraocular Pressure [2] (setting [3]) was -13.9%.
In the case of `Nc1ccc(Cl)c(N=C2NCCN2)c1Cl` [2,6-Dichloro-N^1-(2-imidazolidinylidene)-1,3-benzenediamine hydrochloride], in the assay with Intraocular Pressure [2] (topical), the change in vivo at 1 % came to 0%.
Consider `Cl.Cl.Nc1cc(Cl)c(N=C2NCCN2)c(Cl)c1` [2,6-Dichloro-N^1-(2-imidazolidinylidene)-1,4-benzenediamine Dihydrochloride], for which the “(A) 50uL 0.5% topical Laser-Monkey %IOP” value with Intraocular Pressure [1] is given as -21.0%. Moreover, the change in vivo at 1 % in the assay with Intraocular Pressure [2] (setting [3]) is -1.3%.
For `CN(C)c1cc(Cl)c(N=C2NCCN2)c(Cl)c1` [2,6-Dichloro-N^1-(2-imidazolidinylidene)-N^4, N^4-dimethyl-1,4-benzenediamine Dihydrochloride], the change in vivo at 1 % in the assay on Intraocular Pressure [2] (topical) was -10.2%.
As for `CCOC(=O)c1cc(Cl)c(N=C2NCCN2)c(Cl)c1` [3,5-Dichloro-4-(2-imidazolidinylideneamino)-benzoic acid ethyl ester], the change in vivo at 1 % in the assay with Intraocular Pressure [2] (setting [3]) was -5.6%.
Same read-out and setting: for `O=C(O)c1cc(Cl)c(N=C2NCCN2)c(Cl)c1` [3,5-Dichloro-4-(2-imidazolidinylideneamino)-benzoic acid] the value was -4.5%.
Consider `Cl.Oc1cc(Cl)c(N=C2NCCN2)c(Cl)c1` [3,5-Dichloro-4-(2-imidazolidinylideneamino)-phenol Hydrochloride], for which the “(A) 50uL 0.5% topical Laser-Monkey %IOP” value in the assay with Intraocular Pressure [1] is recorded as -23.0%. In addition, the change in vivo at 1 % with Intraocular Pressure [2] (topical) is -7.4%.
For the compound `OCc1cc(Cl)c(N=C2NCCN2)c(Cl)c1` [3.5-Dichloro-4-(2-imidazolidinylideneamino)-benzenemethanol], in the assay with Intraocular Pressure [1], the “(A) 50uL 0.5% topical Laser-Monkey %IOP” value was -17%. The change in vivo at 1 % in the assay with Intraocular Pressure [2] (setting [3]) came out at 0%.
Regarding `N#Cc1cc(Cl)c(N=C2NCCN2)c(Cl)c1` [4-Cyano-2,6-dichloro-N-(2-imidazolidinylidene)-benzamine Hydrochloride], the change in vivo at 1 % in the assay with Intraocular Pressure [2] (setting [3]) was -2.3%.
For `O=CNc1cc(Cl)c(N=C2NCCN2)c(Cl)c1` [N-[3,5-Dichloro-4-(2-imidazolidinylideneamino) -phenyl]-formamide Free Base], the “(A) 50uL 0.5% topical Laser-Monkey %IOP” value with Intraocular Pressure [1] was -26.0%. For the same compound, the change in vivo at 1 % in the assay with Intraocular Pressure [2] (setting [3]) was -15.6%.
Take `CC(=O)Nc1cc(Cl)c(N=C2NCCN2)c(Cl)c1.Cl` [N-[3,5-Dichloro-4-(2-imidazolidinylideneamino)-phenyl]-acetamide Hydrochloride]: in the assay on Intraocular Pressure [1], the “(A) 50uL 0.5% topical Laser-Monkey %IOP” value is -4.0%. In the assay with Intraocular Pressure [2] (setting [3]), the change in vivo at 1 % is -19%.

The record behind these values is EP0081924A1, “Topical compostions for lowering intraocular pressure” (ALCON LABORATORIES, INC., priority 1981, dated 1983).
